Values quoted from earlier work in patent US20020177547A1, “Pharmaceutical compositions for treating or preventing cancer” (priority 2001, published 2002).

Experiments:
[1] = test system: peripheral blood lymphocytes (PBL) of melanoma patients; conditions: repeated in vitro stimulation of PBL

ITDQVPFSV [peptide 2]
recognition by TILs (hgp100 TILs): immunodominant

KTWGQYWQV [peptide 1]
recognition by TILs (hgp100 TILs): immunodominant

VLYRYGSFSV (listed as Homo sapiens) [Peptide 3]
induction of melanoma-reactive CTLs [1]: able to induce melanoma-reactive CTLs
